In patent US5698538A, “Boronic acid and ester inhibitors of thrombin” (The DuPont Merck Pharmaceutical Company, priority 1996, dated 1997):
pKi: −log10 of the molar value. Where a name gives a salt, the structure may show the parent alone. Read-outs that look alike come from different tables or passages of the source.

Columns and labels:
Type in all cases: biochemical
human thrombin = molecular target: T1, human thrombin (Homo sapiens, UniProt P00734); assay: Inhibition of human thrombin (chromogenic substrate S2238), inhibitory constant Ki; details: 0.2-0.5 nM human thrombin, S2238, pH 7.5, 30 minutes; read-out: Ki values for inhibition of Serine Proteases: Thrombin
T1 construct: purchased Enzyme Research Laboratories, South Bend, Ind
Procedure: (§1) The effectiveness of compounds of the present invention as inhibitors of blood coagulation proteases was determined using purified human proteases and synthetic substrates following procedures similar to those described in Kettner et al. (1990).
(§2) For these assays, the rate of enzymatic (thrombin, Factor Xa, and Factor VIIa) hydrolysis of chromogenic substrates (S2238 (H-D-Phe-Pip-Arg-pNA), S2222, and S2288, respectively; Kabi Pharmacia, Franklin, Ohio.) was measured both in the absence and presence of compounds of the present invention. […] A decrease in the rate of absorbance change at 405 nm in the presence of inhibitor is indicative of enzyme inhibition. The results of this assay are expressed as inhibitory constant, Ki.
(§3) Thrombin and Xa determinations were made in 0.10M sodium phosphate buffer, pH 7.5, containing 0.20M NaCl, and 0.5% PEG 8000. VIIa determinations were made in 0.05M tris buffer, pH 7.6, containing 0.10M NaCl, 4 mM CaCl2, and 0.1% bovine serum albumin. The Michaelis constant, Km, for substrate hydrolysis was determined at 5° C. using the method of Lineweaver and Burk.
(§4) Values of Ki were determined by allowing 0.2-0.5 nM human thrombin or human factor Xa (Enzyme Research Laboratories, South Bend, Ind.), or 50 nM human factor VIIa (BiosPacific, Emeryville, Calif.) react with the substrate (0.20 mM-1 mM) in the presence of inhibitor. Reactions were allowed to go for 30 minutes and the velocities (rate of absorbance change vs time) were measured in the time frame of 25-30 minutes. The following relationship was used to calculate Ki values. [formula] where: vo is the velocity of the control in the absence of inhibitor;
(§5) vs is the velocity in the presence of inhibitor;
(§6) I is the concentration of inhibitor;
(§7) Ki is the dissociation constant of the enzyme: inhibitor complex;
(§8) S is the concentration of substrate;
(§9) Km is the Michaelis constant.

human factor Xa = molecular target: T2, human factor Xa (Homo sapiens, UniProt P00742); assay: Inhibition of human factor Xa (chromogenic substrate S2222), inhibitory constant Ki; details: S2222, pH 7.5, 30 minutes, read-out: Ki values for inhibition of Serine Proteases: Factor Xa
T2 construct: purchased Enzyme Research Laboratories, South Bend, Ind
T2 sequence (P00742 235-488 limits assumed): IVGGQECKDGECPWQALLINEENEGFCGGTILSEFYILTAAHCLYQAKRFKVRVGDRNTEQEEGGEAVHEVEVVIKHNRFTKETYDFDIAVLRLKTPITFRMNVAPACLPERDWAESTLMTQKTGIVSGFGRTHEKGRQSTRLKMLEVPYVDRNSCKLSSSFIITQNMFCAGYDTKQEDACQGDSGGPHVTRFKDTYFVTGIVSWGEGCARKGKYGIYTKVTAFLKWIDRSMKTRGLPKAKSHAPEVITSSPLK
T2 sequence (P00742 41-179 partner limits assumed): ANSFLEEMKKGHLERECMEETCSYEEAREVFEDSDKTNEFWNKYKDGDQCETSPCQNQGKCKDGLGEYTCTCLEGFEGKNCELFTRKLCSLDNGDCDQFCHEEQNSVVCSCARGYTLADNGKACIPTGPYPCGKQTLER
Procedure: as §1, §2, §3, §4, §5, §6, §7, §8, §9

human factor VIIa = molecular target: T3, human factor VIIa (Homo sapiens, UniProt P08709); assay: Inhibition of human factor VIIa (chromogenic substrate S2288), inhibitory constant Ki
T3 construct: Factor VIIa in the extrinsic pathway; purchased BiosPacific, Emeryville, Calif
T3 sequence (P08709 213-466 limits assumed): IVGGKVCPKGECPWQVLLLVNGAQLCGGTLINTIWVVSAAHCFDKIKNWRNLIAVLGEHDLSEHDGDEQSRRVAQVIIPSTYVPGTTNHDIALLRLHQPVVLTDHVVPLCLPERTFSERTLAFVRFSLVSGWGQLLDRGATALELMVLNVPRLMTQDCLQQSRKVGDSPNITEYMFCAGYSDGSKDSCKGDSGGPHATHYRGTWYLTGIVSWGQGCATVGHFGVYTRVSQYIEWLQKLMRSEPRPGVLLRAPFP
T3 sequence (P08709 61-212 partner limits assumed): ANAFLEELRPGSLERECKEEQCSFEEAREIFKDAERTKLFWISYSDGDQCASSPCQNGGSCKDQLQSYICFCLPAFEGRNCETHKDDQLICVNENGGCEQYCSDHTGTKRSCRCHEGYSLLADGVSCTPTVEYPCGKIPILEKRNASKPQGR
Procedure: as §1, §2, §3, §4, §5, §6, §7, §8, §9

[1] = 50 nM human factor VIIa, S2288, pH 7.6, 4 mM CaCl2, 30 minutes, read-out: Ki values for inhibition of Serine Proteases: Factor VIIa

Row | SMILES | pKi (human thrombin) | pKi (human factor Xa) | pKi (human factor VIIa; [1]) | pKi (human factor VIIa)
1 | CC1(C)C2CC3OB([C@H](CCCCN)NC(=O)Cn4nc(CCc5ccccc5)nc4COCc4ccccc4)OC3(C)C1C2 (single isomer, unassigned) [Example 2781] | > 6.30 | 4.30 to 6.30 | 4.30 to 6.30 | –
2 | CC1(C)[C@@H]2C[C@H]3OB([C@H](CCCNC(=N)N)NC(=O)c4cccc(-c5ccccc5)c4)O[C@@]3(C)[C@H]1C2 [Example 2] | > 6.30 | > 6.30 | > 6.30 | –
3 | CC1(C)[C@@H]2C[C@H]3OB([C@H](CCCSC(=N)N)NC(=O)c4cccc(-c5ccccc5)c4)O[C@@]3(C)[C@H]1C2 [Example 35] | > 6.30 | > 6.30 | 4.30 to 6.30 | –
4 | CC1(C)[C@@H]2C[C@H]3OB([C@H](CCCNC(=N)N)NC(=O)c4ccc(-c5ccccc5)cc4[N+](=O)[O-])O[C@@]3(C)[C@H]1C2 [Example 203] | > 6.30 | > 6.30 | > 6.30 | –
5 | Cc1cc(-c2ccccc2S(=O)(=O)NC(C)(C)C)ccc1C(=O)N[C@@H](CCCNC(=N)N)B(O)O [Example 224] | > 6.30 | > 6.30 | > 6.30 | –
6 | Cc1cc(-c2ccccc2S(N)(=O)=O)ccc1C(=O)N[C@@H](CCCNC(=N)N)B1O[C@@H]2C[C@@H]3C[C@@H](C3(C)C)[C@]2(C)O1 [Example 227] | > 6.30 | > 6.30 | 4.30 to 6.30 | –
7 | COC(=O)NS(=O)(=O)c1ccccc1-c1ccc(C(=O)N[C@@H](CCCNC(=N)N)B2O[C@@H]3C[C@@H]4C[C@@H](C4(C)C)[C@]3(C)O2)c(C)c1 [Example 231] | > 6.30 | > 6.30 | 4.30 to 6.30 | –
8 | CC(C)(C)NS(=O)(=O)c1ccccc1-c1ccc(C(=O)N[C@@H](CCCNC(=N)N)B2O[C@@H]3C[C@@H]4C[C@@H](C4(C)C)[C@]3(C)O2)c(Cl)c1 [Example 262] | > 6.30 | > 6.30 | > 6.30 | –
9 | CCN(CC)S(=O)(=O)c1ccccc1-c1ccc(C(=O)N[C@@H](CCCNC(=N)N)B2O[C@@H]3C[C@@H]4C[C@@H](C4(C)C)[C@]3(C)O2)c(C)c1 [Example 286] | > 6.30 | > 6.30 | > 6.30 | –
10 | CC1(C)[C@@H]2C[C@H]3OB([C@H](CCCNC(=N)N)NC(=O)c4ccc(-c5ccccc5)c(N)c4)O[C@@]3(C)[C@H]1C2 [Example 299] | > 6.30 | > 6.30 | > 6.30 | –
11 | COCCC[C@H](NC(=O)c1ccc(-c2ccccc2S(N)(=O)=O)cc1C)B1O[C@@H]2C[C@@H]3C[C@@H](C3(C)C)[C@]2(C)O1 [Example 305] | > 4.30 | 4.30 to 6.30 | 4.30 to 6.30 | –
12 | NCCCC[C@H](NC(=O)c1ccc(-c2ccccc2)nc1)B(O)O [Example 474] | > 4.30 | 4.30 to 6.30 | 4.30 to 6.30 | –
13 | CCCc1nc(Cc2ccccc2)n(CC(=O)N[C@@H](CCCCN)B2O[C@@H]3C[C@@H]4C[C@@H](C4(C)C)[C@]3(C)O2)n1 [Example 890] | > 6.30 | 4.30 to 6.30 | 4.30 to 6.30 | –
14 | CC1(C)[C@@H]2C[C@H]3OB([C@H](CCCCN)NC(=O)Cn4nc(CC(=O)O)nc4Cc4ccccc4)O[C@@]3(C)[C@H]1C2 [Example 905] | > 4.30 | 4.30 to 6.30 | < 3.30 | –
15 | CC1(C)[C@@H]2C[C@H]3OB([C@H](CCCCN)NC(=O)Cn4nc(CO)nc4Cc4ccccc4)O[C@@]3(C)[C@H]1C2 [Example 913] | > 6.30 | < 3.30 | 4.30 to 6.30 | –
16 | COC(=O)Cc1nc(Cc2ccccc2)n(CC(=O)N[C@@H](CCCCN)B2O[C@@H]3C[C@@H]4C[C@@H](C4(C)C)[C@]3(C)O2)n1 [Example 917] | > 6.30 | 4.30 to 6.30 | 4.30 to 6.30 | –
17 | CC1(C)[C@@H]2C[C@H]3OB([C@H](CCCCN)NC(=O)Cn4nc(-c5cccc([N+](=O)[O-])c5)nc4Cc4ccccc4)O[C@@]3(C)[C@H]1C2 [Example 923] | > 6.30 | 4.30 to 6.30 | – | 4.30 to 6.30
18 | CC1(C)[C@@H]2C[C@H]3OB([C@H](CCCCN)NC(=O)Cn4nc(-c5cccc(N)c5)nc4Cc4ccccc4)O[C@@]3(C)[C@H]1C2 [Example 931] | > 6.30 | 4.30 to 6.30 | – | 4.30 to 6.30

Continued, values first:

Row | pKi (human thrombin) | pKi (human factor Xa) | pKi (human factor VIIa; [1]) | pKi (human factor VIIa) | SMILES
19 | > 6.30 | 4.30 to 6.30 | 4.30 to 6.30 | – | CC1(C)C2CC3OB([C@H](CCCCN)NC(=O)c4cnc(-c5ccccc5)nc4-c4ccccc4)OC3(C)C1C2 (single isomer, unassigned) [Example 3465]
20 | > 4.30 | 4.30 to 6.30 | > 6.30 | – | CC1(C)[C@@H]2C[C@H]3OB([C@H](CCCCN)NC(=O)c4cccc(-c5ccccc5)c4)O[C@@]3(C)[C@H]1C2 [Example 68]
21 | > 6.30 | > 6.30 | > 6.30 | – | CC1(C)[C@@H]2C[C@H]3OB([C@H](CCCNC(=N)N)NC(=O)c4ccc(-c5ccccc5)cc4F)O[C@@]3(C)[C@H]1C2 [Example 199]
22 | > 6.30 | > 6.30 | > 6.30 | – | CC(C)(C)NS(=O)(=O)c1ccccc1-c1ccc(C(=O)N[C@@H](CCCNC(=N)N)B2O[C@@H]3C[C@@H]4C[C@@H](C4(C)C)[C@]3(C)O2)cc1 [Example 261]
23 | > 6.30 | > 6.30 | > 6.30 | – | CC(C)(C)NS(=O)(=O)c1ccccc1-c1ccc(C(=O)N[C@@H](CCCNC(=N)N)B(O)O)cc1 [Example 263]
24 | > 6.30 | > 6.30 | 4.30 to 6.30 | – | Cc1cc(-c2cccc(NC(=O)OC(C)(C)C)c2)ccc1C(=O)N[C@@H](CCCNC(=N)N)B1O[C@@H]2C[C@@H]3C[C@@H](C3(C)C)[C@]2(C)O1 [Example 283]
25 | > 6.30 | > 6.30 | > 6.30 | – | CC1(C)[C@@H]2C[C@H]3OB([C@H](CCCNC(=N)N)NC(=O)c4ccc(-c5ccccc5)c([N+](=O)[O-])c4)O[C@@]3(C)[C@H]1C2 [Example 298]
26 | > 6.30 | > 6.30 | 4.30 to 6.30 | – | CC(C)(C)NS(=O)(=O)c1ccccc1-c1ccc(C(=O)N[C@@H](CCCNC=N)B2O[C@@H]3C[C@@H]4C[C@@H](C4(C)C)[C@]3(C)O2)cc1 [Example 302]
27 | > 6.30 | 4.30 to 6.30 | 4.30 to 6.30 | – | CC(C)(C)OC(=O)Nc1cc(-c2ccccc2)ccc1C(=O)N[C@@H](CCCNC(=N)N)B1O[C@@H]2C[C@@H]3C[C@@H](C3(C)C)[C@]2(C)O1 [Example 303]
28 | > 4.30 | 4.30 to 6.30 | 4.30 to 6.30 | – | CC1(C)[C@@H]2C[C@H]3OB([C@H](CCCCN)NC(=O)c4ccc(-c5ccccc5)nc4)O[C@@]3(C)[C@H]1C2 [Example 468]
29 | > 6.30 | 4.30 to 6.30 | – | 4.30 to 6.30 | Cc1nc(Cc2ccccc2)n(CC(=O)N[C@@H](CCCCN)B2O[C@@H]3C[C@@H]4C[C@@H](C4(C)C)[C@]3(C)O2)n1 [Example 888]
30 | > 6.30 | 4.30 to 6.30 | 4.30 to 6.30 | – | CSCc1nc(Cc2ccccc2)n(CC(=O)N[C@@H](CCCCN)B2O[C@@H]3C[C@@H]4C[C@@H](C4(C)C)[C@]3(C)O2)n1 [Example 892]
31 | > 6.30 | 4.30 to 6.30 | – | 4.30 to 6.30 | CC1(C)[C@@H]2C[C@H]3OB([C@H](CCCCN)NC(=O)Cn4nc(CC#N)nc4Cc4ccccc4)O[C@@]3(C)[C@H]1C2 [Example 898, R-N^1-(3-Cyanomethyl-5-phenylmethyl-1,2,4-triazol-1-yl)acetyl-borolysine, (+)-pinanediol ester, hydrochloride]
32 | > 6.30 | 4.30 to 6.30 | 4.30 to 6.30 | – | CC1(C)[C@@H]2C[C@H]3OB([C@H](CCCCN)NC(=O)Cn4nc(COCc5ccccc5)nc4Cc4ccccc4)O[C@@]3(C)[C@H]1C2 [Example 914]
33 | > 6.30 | 4.30 to 6.30 | – | 4.30 to 6.30 | CC1(C)[C@@H]2C[C@H]3OB([C@H](CCCCN)NC(=O)Cn4nc(Cc5ccccc5)nc4Cc4ccccc4)O[C@@]3(C)[C@H]1C2 [Example 921]
